Assay results reported in patent publication US11590116B2 (THERAVANCE BIOPHARMA R&D IP, LLC, priority 2019, dated 2023).

Key:
[1] = biological target: T1, recombinant human ALK5 (TGF-βR1) protein (Homo sapiens, UniProt P36897); assay: Biochemical ALK5 (TGF-βR1) assay to measure pKi (LANCE Ultra ULight kinase assay); conditions: apparent pKi from pIC50 by Cheng-Prusoff, read-out: ALK5 pKi (converted)
T1 construct: purchased Life Technologies PR9075A
T1 sequence (P36897 34-503): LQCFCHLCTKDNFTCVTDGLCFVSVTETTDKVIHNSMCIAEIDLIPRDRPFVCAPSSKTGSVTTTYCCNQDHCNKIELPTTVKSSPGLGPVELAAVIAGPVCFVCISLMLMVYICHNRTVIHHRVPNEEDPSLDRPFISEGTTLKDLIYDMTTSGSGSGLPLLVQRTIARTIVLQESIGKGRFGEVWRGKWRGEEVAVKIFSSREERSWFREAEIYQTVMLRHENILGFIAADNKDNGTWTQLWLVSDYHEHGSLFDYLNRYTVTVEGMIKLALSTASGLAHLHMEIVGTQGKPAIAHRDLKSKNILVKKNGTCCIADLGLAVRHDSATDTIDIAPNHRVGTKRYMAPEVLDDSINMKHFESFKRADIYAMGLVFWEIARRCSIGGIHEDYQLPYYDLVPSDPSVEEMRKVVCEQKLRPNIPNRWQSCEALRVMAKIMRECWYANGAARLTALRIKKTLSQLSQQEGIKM
How it was run: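 After a 60 min room-temperature preincubation of ALK5 with compound, phosphorylation proceeds 60 min at 37 °C on ATP addition (125 μM as 5× stock). Detection: Eu-labelled phospho-Thr1342 Topo IIα antibody in EDTA buffer, pH 7.0; emission 665 nm.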

[2] = test system: TGF-β-stimulated SMAD3 phosphorylation in BEAS-2B cells; assay: Cellular ALK5 potency assay, inhibition of TGF-β stimulated pSMAD3 formation in BEAS-2B cells; type: cell-based; conditions: Homo sapiens; inhibition of TGF-β stimulated pSMAD3 formation, BEAS-2B cells; read-out: BEAS2B pIC50 (converted)
How it was run: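 SMAD3 phosphorylation was measured by AlphaLISA after 30 min TGF-β stimulation (10 ng/mL final) of BEAS-2B cells preincubated 1 h with compound at 37 °C. Results given as pIC50.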

| Compound | Ki [1] | IC50 [2] |
| --- | --- | --- |
| Cc1cccc(-c2[nH]cnc2-c2ccc3ncc(-c4cccc(N5CC(N)C5)c4)cc3c2)n1 [Compound 397, 1-[3-[6-[5-(6-methyl-2-pyridyl)-1H-imidazol-4-yl]-3-quinolyl]phenyl]azetidin-3-amine] | < 0.0316 nM | 25.1 to 158 nM |
| Cc1cccc(-c2[nH]cnc2-c2ccc3ncc(-c4ncc(C(=O)OCC5CNC5)cn4)cc3c2)n1 [Compound 1144, azetidin-3-ylmethyl 2-[6-[5-(6-methyl-2-pyridyl)-1H-imidazol-4-yl]-3-quinolyl]pyrimidine-5-carboxylate] | 0.0398 to 0.316 nM | 25.1 to 158 nM |
| Cc1cccc(-c2[nH]cnc2-c2ccc3ncc(C(=O)OCCN4CCCCC4)cc3c2)n1 [Compound 887, 2-(piperidin-1-yl)ethyl 6-(5-(6-methylpyridin-2-yl)-1H-imidazol-4-yl)quinoline-3-carboxylate] | 0.0398 to 0.316 nM | 25.1 to 158 nM |
| Cc1cccc(-c2n[nH]cc2-c2ccc3ncc(N4CCN(C5(C(N)=O)CCCC5)CC4)cc3n2)n1 [Compound 528, 1-[4-[6-[3-(6-methyl-2-pyridyl)-1H-pyrazol-4-yl]-1,5-naphthyridin-3-yl]piperazin-1-yl]cyclopentanecarboxamide] | 0.398 to 3.16 nM | 200 to 1260 nM |
| Cc1cccc(-c2[nH]cnc2-c2ccc3ncc(N4CC(CN)C4)cc3c2)n1 [Compound 68, [1-[6-[5-(6-methyl-2-pyridyl)-1H-imidazol-4-yl]-3-quinolyl]azetidin-3-yl]methanamine] | 0.0398 to 0.316 nM | < 20 nM |
| Cc1cccc(-c2n[nH]cc2-c2ccc3ncc(N(C)C)cc3n2)n1 [Compound 59, N,N-dimethyl-6-[3-(6-methyl-2-pyridyl)-1H-pyrazol-4-yl]-1,5-naphthyridin-3-amine] | 0.0398 to 0.316 nM | < 20 nM |
| Cc1cccc(-c2[nH]cnc2-c2ccc3ncc(N4CCC(C(=O)OCC5CNC5)CC4)cc3c2)n1 [Compound 424, azetidin-3-ylmethyl 1-[6-[5-(6-methyl-2-pyridyl)-1H-imidazol-4-yl]-3-quinolyl]piperidine-4-carboxylate] | 0.0398 to 0.316 nM | 200 to 1260 nM |
| Cc1cccc(-c2n[nH]cc2-c2ccc3ncc(NC(C)(C)CN4CCN(C)CC4)cc3n2)n1 [Compound 556, N-[1,1-dimethyl-2-(4-methylpiperazin-1-yl)ethyl]-6-[3-(6-methyl-2-pyridyl)-1H-pyrazol-4-yl]-1,5-naphthyridin-3-amine] | 0.398 to 3.16 nM | 25.1 to 158 nM |
| CCc1cccc(-c2n[nH]cc2-c2ccc3ncc(N4CCC(N(C)C)CC4)cc3n2)n1 [Compound 348, 1-[6-[3-(6-ethyl-2-pyridyl)-1H-pyrazol-4-yl]-1,5-naphthyridin-3-yl]-N,N-dimethyl-piperidin-4-amine] | < 0.0316 nM | 25.1 to 158 nM |
| Cc1cccc(-c2n[nH]cc2-c2ccc3ncc(NC(=O)CN4CCN(C(C)C)CC4)cc3n2)n1 [Compound 625, 2-(4-isopropylpiperazin-1-yl)-N-[6-[3-(6-methyl-2-pyridyl)-1H-pyrazol-4-yl]-1,5-naphthyridin-3-yl]acetamide] | 0.0398 to 0.316 nM | 25.1 to 158 nM |
| Cc1cccc(-c2[nH]cnc2-c2ccc3ncc(Nc4cnn(CCC5CCNCC5)c4)cc3c2)n1 [Compound 667, 6-[5-(6-methyl-2-pyridyl)-1H-imidazol-4-yl]-N-[1-[2-(4-piperidyl)ethyl]pyrazol-4-yl]quinolin-3-amine] | 0.0398 to 0.316 nM | 200 to 1260 nM |
| CNC1CCN(c2cnc3ccc(-c4c(-c5cccc(C)n5)[nH]c5cccnc45)nc3c2)CC1 [Compound 328, N-methyl-1-[6-[2-(6-methyl-2-pyridyl)-1H-pyrrolo[3,2-b]pyridin-3-yl]-1,5-naphthyridin-3-yl]piperidin-4-amine] | 0.398 to 3.16 nM | 200 to 1260 nM |
| Cc1cccc(-c2[nH]cnc2-c2ccc3ncc(-c4csc(C(=O)OCCN5CC[C@@H](N)C5)c4)cc3c2)n1 [Compound 1220, 2-[(3R)-3-aminopyrrolidin-1-yl]ethyl 4-[6-[5-(6-methyl-2-pyridyl)-1H-imidazol-4-yl]-3-quinolyl]thiophene-2-carboxylate] | 0.0398 to 0.316 nM | 25.1 to 158 nM |

More lines, main results first:

| Ki [1] | Compound | IC50 [2] |
| --- | --- | --- |
| 3.98 to 31.6 nM | Cc1cccc(-c2n[nH]cc2-c2ccc3ncc(OCC(=O)N4CCOCC4)cc3n2)n1 [Compound 486, 2-[[6-[3-(6-methyl-2-pyridyl)-1H-pyrazol-4-yl]-1,5-naphthyridin-3-yl]oxy]-1-morpholino-ethanone] | 1580 to 10000 nM |
| 0.0398 to 0.316 nM | COc1[nH]nc(-c2cccc(C)n2)c1-c1ccc2ncc(N3CCC(N4CCN(C)CC4)CC3)cc2n1 [Compound 112, 2-[5-methoxy-3-(6-methyl-2-pyridyl)-1H-pyrazol-4-yl]-7-[4-(4-methylpiperazin-1-yl)-1-piperidyl]-1,5-naphthyridine] | 200 to 1260 nM |
| 0.0398 to 0.316 nM | Cc1cccc(-c2[nH]cnc2-c2ccc3ncc(C(=O)OC4CCCCNC4)cc3c2)n1 (centres unmarked) [Compound 773, azepan-3-yl 6-[5-(6-methyl-2-pyridyl)-1H-imidazol-4-yl]quinoline-3-carboxylate] | 25.1 to 158 nM |
| 0.0398 to 0.316 nM | Cc1cccc(-c2[nH]cnc2-c2ccc3ncc(NCCN4CCCC4)cc3n2)n1 [Compound 573, 6-[5-(6-methyl-2-pyridyl)-1H-imidazol-4-yl]-N-(2-pyrrolidin-1-ylethyl)-1,5-naphthyridin-3-amine] | 25.1 to 158 nM |
| 0.0398 to 0.316 nM | Cc1cccc(-c2n[nH]cc2-c2ccc3ncc(-c4ncn5c4CNCC5)cc3n2)n1 [Compound 118, 2-[3-(6-methyl-2-pyridyl)-1H-pyrazol-4-yl]-7-(5,6,7,8-tetrahydroimidazo[1,5-a]pyrazin-1-yl)-1,5-naphthyridine] | 25.1 to 158 nM |
| < 0.0316 nM | Cc1cccc(-c2n[nH]cc2-c2ccc3ncc(-c4cc5n(n4)CCNC5)cc3n2)n1 [Compound 83, 2-[3-(6-methyl-2-pyridyl)-1H-pyrazol-4-yl]-7-(4,5,6,7-tetrahydropyrazolo[1,5-a]pyrazin-2-yl)-1,5-naphthyridine] | < 20 nM |
| 3.98 to 31.6 nM | CNCCn1cc(-c2cnc3ccc(-c4nnn(Cc5ccccc5)c4-c4cccc(C)n4)cc3c2)cn1 [Compound 314, 2-[4-[6-[1-benzyl-5-(6-methyl-2-pyridyl)triazol-4-yl]-3-quinolyl]pyrazol-1-yl]-N-methyl-ethanamine] | 1580 to 10000 nM |
| 3.98 to 31.6 nM | Cc1cccc(-c2[nH]cnc2-c2ccc3nccc(C(=O)O[C@H]4CC[C@@](C)(N)CC4)c3c2)n1 [Compound 1161, (4-amino-4-methyl-cyclohexyl) 6-[5-(6-methyl-2-pyridyl)-1H-imidazol-4-yl]quinoline-4-carboxylate] | 200 to 1260 nM |
| 0.0398 to 0.316 nM | Cc1cccc(-c2[nH]ncc2-c2ccc3ncc(C(=O)OC4CCN(C)C4)cc3n2)n1 (centres unmarked) [Compound 523, (1-methylpyrrolidin-3-yl) 6-[5-(6-methyl-2-pyridyl)-1H-pyrazol-4-yl]-1,5-naphthyridine-3-carboxylate] | 25.1 to 158 nM |
| 0.0398 to 0.316 nM | Cc1nc(-c2n[nH]cc2-c2ccc3ncc(-c4cnn5c4CNCC5)cc3n2)ccc1F [Compound 185, 2-[3-(5-fluoro-6-methyl-2-pyridyl)-1H-pyrazol-4-yl]-7-(4,5,6,7-tetrahydropyrazolo[1,5-a]pyrazin-3-yl)-1,5-naphthyridine] | < 20 nM |
| < 0.0316 nM | Cc1cccc(-c2[nH]cnc2-c2ccc3ncc(C4=CCN(C(C)C)C4)cc3c2)n1 [Compound 319, 3-(1-isopropyl-2,5-dihydropyrrol-3-yl)-6-[5-(6-methyl-2-pyridyl)-1H-imidazol-4-yl]quinoline] | 25.1 to 158 nM |
| 0.0398 to 0.316 nM | Cc1cccc(-c2[nH]cnc2-c2ccc3ncc(N4CCC(C(=O)OC5CNC5)CC4)cc3c2)n1 [Compound 705, azetidin-3-yl 1-[6-[5-(6-methyl-2-pyridyl)-1H-imidazol-4-yl]-3-quinolyl]piperidine-4-carboxylate] | 200 to 1260 nM |
| < 0.0316 nM | Cc1nc(-c2n[nH]cc2-c2ccc3ncc(N4CCN(CCO)CC4)cc3n2)ccc1F [Compound 509, 2-[4-[6-[3-(5-fluoro-6-methyl-2-pyridyl)-1H-pyrazol-4-yl]-1,5-naphthyridin-3-yl]piperazin-1-yl]ethanol] | 25.1 to 158 nM |
| 0.398 to 3.16 nM | Cc1cccc(-c2n[nH]cc2-c2ccc3ncc(NCC(=O)N4CCOCC4)cc3n2)n1 [Compound 90, 2-[[6-[3-(6-methyl-2-pyridyl)-1H-pyrazol-4-yl]-1,5-naphthyridin-3-yl]amino]-1-morpholino-ethanone] | 25.1 to 158 nM |
| 0.0398 to 0.316 nM | CNCCn1cc(-c2cnc3ccc(-c4c(-c5cccc(C)n5)nnn4Cc4ccccc4)cc3c2)cn1 [Compound 498, 2-[4-[6-[3-benzyl-5-(6-methyl-2-pyridyl)triazol-4-yl]-3-quinolyl]pyrazol-1-yl]-N-methyl-ethanamine] | 25.1 to 158 nM |
